According to ChEMBL document CHEMBL1201862, “PubChem BioAssay data set” (2004):
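Growth conditions: 96-well plates. Treatment: test compound, 48 hours, 5 concentrations. Analysis: linear interpolation between bracketing concentrations; unreached endpoints set to highest concentration. GI50 is the concentration that inhibits growth by half.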 Calls of active or inactive are those of the source. Rule as the data show it: active = GI50 up to about 1.1 µM and inactive = higher.

How the values were obtained:
Assay in all cases: NCI anticancer screen, dose series, 48 h
MDA-MB-231 = tested on: MDA-MB-231
K562 = tested on: K562
HOP-62 = tested on: HOP-62
MDA-N = tested on: MDA-N
SW-620 = tested on: SW-620
HCT-15 = tested on: HCT-15
SK-MEL-5 = tested on: SK-MEL-5
MOLT-4 = tested on: MOLT-4
OVCAR-3 = tested on: OVCAR-3
Malme-3M = tested on: Malme-3M
SF-295 = tested on: SF-295
EKVX = tested on: EKVX
NCI-H460 = tested on: NCI-H460
SN12C = tested on: SN12C
HCT-116 = tested on: HCT-116
COLO 205 = tested on: COLO 205
HCC 2998 = tested on: HCC 2998
LOX IMVI = tested on: LOX IMVI
OVCAR-5 = tested on: OVCAR-5
PC-3 = tested on: PC-3

SMILES | GI50 (MDA-MB-231) | GI50 (K562) | GI50 (HOP-62) | GI50 (MDA-N) | GI50 (SW-620) | GI50 (HCT-15) | GI50 (SK-MEL-5) | GI50 (MOLT-4) | GI50 (OVCAR-3) | GI50 (Malme-3M) | GI50 (SF-295) | GI50 (EKVX) | GI50 (NCI-H460) | GI50 (SN12C) | GI50 (HCT-116) | GI50 (COLO 205) | GI50 (HCC 2998) | GI50 (LOX IMVI) | GI50 (OVCAR-5) | GI50 (PC-3)
COCOc1cc(OC)c(Br)cc1C/C(=N/O)C(=O)OC | 42.2 µM (inactive) | 49.7 µM (inactive) | 67.3 µM (inactive) | 28 µM (inactive) | > 100 µM (inactive) | > 100 µM | 67.8 µM (inactive) | 27.5 µM (inactive) | 43.1 µM (inactive) | 25.5 µM (inactive) | > 100 µM (inactive) | 49 µM (inactive) | 71.9 µM (inactive) | > 100 µM (inactive) | > 100 µM (inactive) | > 100 µM (inactive) | > 100 µM (inactive) | 73.5 µM (inactive) | > 100 µM (inactive) | 42.9 µM (inactive)
CCOC(=O)/C(C#N)=C/c1coc2cc(C)cc(C)c2c1=O | > 100 µM (inactive) | > 100 µM (inactive) | > 100 µM (inactive) | > 100 µM (inactive) | > 100 µM (inactive) | > 100 µM | > 100 µM (inactive) | > 100 µM (inactive) | 64.9 µM (inactive) | 45.3 µM (inactive) | 91.6 µM (inactive) | > 100 µM (inactive) | > 100 µM (inactive) | > 100 µM (inactive) | > 100 µM (inactive) | > 100 µM (inactive) | > 100 µM (inactive) | > 100 µM (inactive) | > 100 µM (inactive) | > 100 µM (inactive)
Cn1c2ccccc2c2cc(-c3ccccc3)c3c(c21)C(=O)C=CC3=O | 23.2 µM (inactive) | 5.31 µM (inactive) | 28.8 µM (inactive) | 19.4 µM (inactive) | 9.48 µM (inactive) | 15.2 µM | 28.3 µM (inactive) | 3.59 µM (inactive) | 16.4 µM (inactive) | 19.5 µM (inactive) | 24 µM (inactive) | 39.7 µM (inactive) | 20.6 µM (inactive) | 21.7 µM (inactive) | 20.2 µM (inactive) | 17.5 µM (inactive) | 34.1 µM (inactive) | 18.6 µM (inactive) | 19 µM (inactive) | 18.4 µM (inactive)
O=C(c1c(Cl)cc(Cl)cc1Cl)N(Cc1cccnc1)C(=S)N(Cc1cccnc1)C(=O)c1c(Cl)cc(Cl)cc1Cl | 20.4 µM (inactive) | 4.32 µM (inactive) | 4.35 µM (inactive) | 2.15 µM (inactive) | 4.14 µM (inactive) | 3.05 µM | 10.9 µM (inactive) | 6.84 µM (inactive) | 3.77 µM (inactive) | 19.5 µM (inactive) | 19.4 µM (inactive) | 15.5 µM (inactive) | 13.4 µM (inactive) | 5.68 µM (inactive) | 2.91 µM (inactive) | 4.73 µM (inactive) | 3.12 µM (inactive) | 3.65 µM (inactive) | 18.5 µM (inactive) | 5.96 µM (inactive)
O=C(O)C1(Cc2ccccc2)Cc2cc3c(cc2C1)CCC3 | > 100 µM (inactive) | 72.9 µM (inactive) | 99.3 µM (inactive) | > 100 µM (inactive) | > 100 µM (inactive) | 52.6 µM | > 100 µM (inactive) | > 100 µM (inactive) | > 100 µM (inactive) | > 100 µM (inactive) | > 100 µM (inactive) | 54.2 µM (inactive) | 86.9 µM (inactive) | > 100 µM (inactive) | 42.9 µM (inactive) | > 100 µM (inactive) | 58.2 µM (inactive) | > 100 µM (inactive) | > 100 µM (inactive) | > 100 µM (inactive)
O=C(O)C(O)C(O)C(O)C(=O)CO (stereo not given) | > 100 µM (inactive) | > 100 µM (inactive) | > 100 µM (inactive) | > 100 µM (inactive) | > 100 µM (inactive) | > 100 µM | > 100 µM (inactive) | > 100 µM (inactive) | > 100 µM (inactive) | > 100 µM (inactive) | > 100 µM (inactive) | > 100 µM (inactive) | > 100 µM (inactive) | > 100 µM (inactive) | > 100 µM (inactive) | > 100 µM (inactive) | > 100 µM (inactive) | > 100 µM (inactive) | > 100 µM (inactive) | > 100 µM (inactive)
